# pIC50: −log10 of the molar value. Where a name gives a salt, the structure may show the parent alone.
# Columns and labels:
# SMYD3 [1] = molecular target: T1, SMYD3 (Homo sapiens (Human), UniProt Q9H7B4); assay: SMYD3 biochemical assay (SPA, 3H-SAM methylation of MEKK2 protein substrate); details: for IC50: read-out: SMYD3 Biochem IC50 (μM)*
# How it was run: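 Methylation of N-terminally GST-tagged MEKK2 by untagged full-length human SMYD3, using 3H-SAM, in pH 8.0 Tris buffer with TCEP, BSG and Tween 20; enzyme and compound sat 30 min at room temperature before substrate addition. Stopped with 100 uM (final) cold SAM; incorporation read by scintillation proximity as dpm/cpm.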
# SMYD3 [2] = molecular target: T1, SMYD3; assay: SMYD3 cell assay (Trimethyl-MEKK2 In-Cell Western in 293T/17 cells); type: cell-based; details: for IC50: 293T/17 cells, read-out: SMYD3 Cell IC50 (μM)*
# How it was run: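 In-Cell Western readout: methanol-fixed cells stained for trimethyl-MEKK2 and flag tag, ratio per well normalized to DMSO and background controls.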
# [3] = average of n = 1 to n = 50, read-out: SMYD3 Biochem IC50
# [4] = average of n = 1 to n = 50, read-out: SMYD3 Cell IC50
# T1 sequence (Q9H7B4 whole entry): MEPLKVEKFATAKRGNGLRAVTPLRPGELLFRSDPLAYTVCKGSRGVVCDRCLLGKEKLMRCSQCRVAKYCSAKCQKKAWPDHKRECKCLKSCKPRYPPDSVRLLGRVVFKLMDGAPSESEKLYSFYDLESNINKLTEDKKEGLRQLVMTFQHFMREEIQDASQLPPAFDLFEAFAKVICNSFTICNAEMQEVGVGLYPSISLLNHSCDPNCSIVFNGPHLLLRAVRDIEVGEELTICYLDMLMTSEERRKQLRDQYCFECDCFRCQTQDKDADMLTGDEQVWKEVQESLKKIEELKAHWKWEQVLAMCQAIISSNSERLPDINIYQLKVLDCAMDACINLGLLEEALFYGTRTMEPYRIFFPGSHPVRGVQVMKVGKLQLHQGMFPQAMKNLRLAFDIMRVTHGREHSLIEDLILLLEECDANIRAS
IC50 (SMYD3 [1]),IC50 (SMYD3 [2]),Structure (SMILES),pIC50 (SMYD3 [1]; read-out: SMYD3 Biochem IC50*),pIC50 (SMYD3 [2]; read-out: SMYD3 Cell IC50*),further results
–,–,"CN(CCCN1CCOCC1)C1CCN(S(=O)(=O)N2[C@@H]3CC[C@H]2C[C@@H](NC(=O)c2cc(C4CC4)on2)C3)CC1 [compound 936, 5-cyclopropyl-N-((1R,3r,5S)-8-((4-(methyl(3-morpholinopropyl)amino)piperidin-1-yl)sulfonyl)-8-azabicyclo[3.2.1]octan-3-yl)isoxazole-3-carboxamide]",7.36,6.21,–
–,–,"CCc1cc(C(=O)N[C@H]2C[C@H]3CC[C@@H](C2)N3S(=O)(=O)N2CCC(N)CC2)no1 [compound 799, N-((1R,3r,5S)-8-((4-aminopiperidin-1-yl)sulfonyl)-8-azabicyclo[3.2.1]octan-3-yl)-5-ethylisoxazole-3-carboxamide]",8.69,7.46,–
–,–,"C[C@H]1C[C@@H](NC(=O)c2cc(C3CC3)on2)CCN1S(=O)(=O)N1CCNC(Cc2ccccc2)C1 (stereo partly drawn) [compound 736, N-((2S,4S)-1-((3-benzylpiperazin-1-yl)sulfonyl)-2-methylpiperidin-4-yl)-5-cyclopropylisoxazole-3-carboxamide]",–,–,pIC50 (SMYD3 [1]; [3]): 6.34; pIC50 (SMYD3 [2]; [4]): 5.69
6.42 µM,20 µM,"C[C@@H]1C[C@H](NC(=O)c2cc(C3CC3)on2)CCN1S(=O)(=O)Cc1cccnc1 [compound 329, 5-cyclopropyl-N-((2R,4R)-2-methyl-1-((pyridin-3-ylmethyl)sulfonyl)piperidin-4-yl)isoxazole-3-carboxamide]",–,–,–
–,–,"C[C@H]1CN(S(=O)(=O)N2CC[C@H](NC(=O)c3cc(C4CC4)on3)C[C@@H]2C)CCN1C [compound 735, 5-cyclopropyl-N-((2S,4S)-1-(((S)-3,4-dimethylpiperazin-1-yl)sulfonyl)-2-methylpiperidin-4-yl)isoxazole-3-carboxamide]",–,–,pIC50 (SMYD3 [1]; [3]): 6.35; pIC50 (SMYD3 [2]; [4]): 5.87
–,–,"C[C@H]1CN(S(=O)(=O)[C@H]2CC[C@H](N)CC2)CC[C@H]1NC(=O)c1cc(C2CC2)on1 [compound 790, N-((3S,4R)-1-(((1r,4S)-4-aminocyclohexyl)sulfonyl)-3-methylpiperidin-4-yl)-5-cyclopropylisoxazole-3-carboxamide]",8.74,7.25,–
–,–,"CC1CC(CS(=O)(=O)N2CC[C@H](NC(=O)c3cc(C4CC4)on3)C[C@@H]2C)CC(C)N1 (stereo partly drawn) [compound 903, 5-cyclopropyl-N-((2S,4S)-1-(((2,6-dimethylpiperidin-4-yl)methyl)sulfonyl)-2-methylpiperidin-4-yl)isoxazole-3-carboxamide]",7.79,6.56,–
–,–,"O=C(N[C@H]1C[C@H]2CC[C@@H](C1)N2S(=O)(=O)NC1CCNCC1)c1cc(C2CC2)on1 [compound 897, 5-cyclopropyl-N-((1R,3r,5S)-8-(N-(piperidin-4-yl)sulfamoyl)-8-azabicyclo[3.2.1]octan-3-yl)isoxazole-3-carboxamide]",7.85,6.37,–
–,–,"NC1CCN(S(=O)(=O)N2[C@@H]3CC[C@H]2C[C@@H](NC(=O)c2cc(C4CC4)on2)C3)CC1 [Cpd. No. 532, N-((1R,3r,5S)-8-(4-aminopiperidin-1-ylsulfonyl)-8-aza-bicyclo[3.2.1]octan-3-yl)-5-cyclopropylisoxazole-3-carboxamide hydrochloride]",–,–,"pIC50 (SMYD3 [1]; Table 2A, read-out: SMYD3 Biochem IC50): 9.05; pIC50 (SMYD3 [2]; Table 2A, read-out: SMYD3 Cell IC50): 7.67"
–,–,"C[C@@H]1CN(S(=O)(=O)N2CC[C@H](NC(=O)c3cc(C4CC4)on3)C[C@@H]2C)CCN1C [compound 669, 5-cyclopropyl-N-((2S,4S)-1-(((R)-3,4-dimethylpiperazin-1-yl)sulfonyl)-2-methylpiperidin-4-yl)isoxazole-3-carboxamide]",–,–,pIC50 (SMYD3 [1]; [3]): 6.99; pIC50 (SMYD3 [2]; [4]): 6.40
–,–,"C[C@@H]1C[C@H](NC(=O)c2cc(C3CC3)on2)CCN1S(=O)(=O)CC1CCN(CCN2CCOCC2)CC1 [compound 676, 5-cyclopropyl-N-((2R,4R)-2-methyl-1-(((1-(2-morpholinoethyl)piperidin-4-yl)methyl)sulfonyl)piperidin-4-yl)isoxazole-3-carboxamide]",–,–,pIC50 (SMYD3 [1]; [3]): 6.95; pIC50 (SMYD3 [2]; [4]): < 5.00
–,–,"O=C(N[C@H]1C[C@H]2CC[C@@H](C1)N2S(=O)(=O)[C@H]1CCCCNC1)c1cc(C2CC2)on1 [compound 883, N-((1R,3S,5S)-8-(((S)-azepan-3-yl)sulfonyl)-8-azabicyclo[3.2.1]octan-3-yl)-5-cyclopropylisoxazole-3-carboxamide]",7.92,6.89,–
1.14 µM,5.65 µM,"C[C@@H]1C[C@H](NC(=O)c2cc(C3CC3)on2)CCN1S(=O)(=O)c1cccc(C#N)c1 [compound 354, N-((2R,4R)-1-((3-cyanophenyl)sulfonyl)-2-methylpiperidin-4-yl)-5-cyclopropylisoxazole-3-carboxamide]",–,–,–
0.533 µM,2.13 µM,"C[C@H]1C[C@@H](NC(=O)c2cc(C3CC3)on2)CCN1S(=O)(=O)c1c[nH]cn1 [compound 483, N-((2S,4S)-1-((1H-imidazol-4-yl)sulfonyl)-2-methylpiperidin-4-yl)-5-cyclopropylisoxazole-3-carboxamide]",–,–,–
0.454 µM,3.88 µM,"C[C@@H]1C[C@H](NC(=O)c2cc(C3CC3)on2)CCN1C(=O)c1cccc(C(C)(C)N)c1 [compound 365, N-((2R,4R)-1-(3-(2-aminopropan-2-yl)benzoyl)-2-methylpiperidin-4-yl)-5-cyclopropylisoxazole-3-carboxamide]",–,–,–
–,–,"CC1CN(S(=O)(=O)N2CC[C@H](NC(=O)c3cc(C4CC4)on3)C[C@@H]2C)CCC1N (stereo partly drawn) [compound 800, N-((2S,4S)-1-((4-amino-3-methylpiperidin-l-yl)sulfonyl)-2-methylpiperidin-4-yl)-5-cyclopropylisoxazole-3-carboxamide]",8.66,7.40,–
–,–,"COCCN[C@H]1CC[C@H](S(=O)(=O)N2[C@@H]3CC[C@H]2C[C@@H](NC(=O)c2cc(C4CC4)on2)C3)CC1 [compound 825, 5-cyclopropyl-N-((1R,3R,5S)-8-(((1r,4R)-4-((2-methoxyemyl)amino)cyclohexyl)sulfonyl)-8-azabicyclo[3.2.1]octan-3-yl)isoxazole-3-carboxamide]",8.41,7.26,–
0.932 µM,3.26 µM,"C[C@H]1C[C@@H](NC(=O)c2cc(C3CC3)on2)CCN1S(=O)(=O)c1cccc(C(N)=O)c1 [compound 477, N-((2S,4S)-1-((3-carbamoylphenyl)sulfonyl)-2-methylpiperidin-4-yl)-5-cyclopropylisoxazole-3-carboxamide]",–,–,–

Structure (SMILES),IC50 (SMYD3 [1]),IC50 (SMYD3 [2]),pIC50 (SMYD3 [1]; read-out: SMYD3 Biochem IC50*),pIC50 (SMYD3 [2]; read-out: SMYD3 Cell IC50*),further results
"O=C(N[C@H]1C[C@H]2CC[C@@H](C1)N2S(=O)(=O)c1ccccc1)c1cc(C2CC2)on1 [compound 400, 5-cyclopropyl-N-((1R,3r,5S)-8-(phenylsulfonyl)-8-azabicyclo[3.2.1]octan-3-yl)isoxazole-3-carboxamide]",4.13 µM,> 10 µM,–,–,–
"NCCS(=O)(=O)N1[C@@H]2CC[C@H]1C[C@@H](NC(=O)c1cc(C3CC3)on1)C2 [compound 396, N-((1R,3r,5S)-8-((2-aminoethyl)sulfonyl)-8-azabicyclo[3.2.1]octan-3-yl)-5-cyclopropylisoxazole-3-carboxamide]",0.0417 µM,0.375 µM,–,–,–
"O=C(N[C@H]1C[C@H]2CC[C@@H](C1)N2S(=O)(=O)CCN1CCOCC1)c1cc(C2CC2)on1 [compound 441, 5-cyclopropyl-N-((1R,3r,5S)-8-((2-morpholinoethyl)sulfonyl)-8-azabicyclo[3.2.1]octan-3-yl)isoxazole-3-carboxamide]",1.61 µM,3.67 µM,–,–,–

# From patent US10577363B2, “Substituted piperidine compounds” (EPIZYME, INC., priority 2014, dated 2020)
